Data reported in patent US20160060642A1, “G Protein Coupled Receptor Libraries” (COMMONWEALTH SCIENTIFIC AND INDUSTRIAL RESEARCH ORGANISATION, priority 2013, published 2016).

Tests used:
Assay type in all cases: cell-based
ODR-10 [1] = biological target: T1, ODR-10 (Caenorhabditis elegans, UniProt Q18807); experiment: Multiwell (48/96 well) LacZ/ONPG assay of yeast screening strain transformed with odr-10; settings: for Abs414 reading after 3 hours: 500 μM diacetyl
T1 construct: expressed in transfected cells; host or cells: Saccharomyces cerevisiae Cyb-KAGMM (ste2- sst2- far1- gpa1-, gpa1/odr-3 chimaera integrated)
T1 sequence (Q18807 1-339): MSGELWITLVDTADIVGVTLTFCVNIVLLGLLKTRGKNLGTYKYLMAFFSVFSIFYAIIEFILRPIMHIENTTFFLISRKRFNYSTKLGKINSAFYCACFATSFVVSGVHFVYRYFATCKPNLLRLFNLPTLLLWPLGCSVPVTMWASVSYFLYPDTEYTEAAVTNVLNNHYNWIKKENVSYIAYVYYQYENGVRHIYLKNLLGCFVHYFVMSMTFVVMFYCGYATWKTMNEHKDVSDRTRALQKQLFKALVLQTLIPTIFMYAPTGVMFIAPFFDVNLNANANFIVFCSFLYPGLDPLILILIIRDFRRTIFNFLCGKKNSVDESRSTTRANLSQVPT
Experimental: The method was as follows ([…] from Brouchon-[…] et al., 2003): • 1 mL of Saccharomyces cerevisiae Minimal Medium (SCMM)-His, -Leu was inoculated with a single colony of the screening strain transformed with odr-10 (lacZ/[…]^31 gpa1^-) at Abs600 nm=1, in a 96-well deep well plate. • The plate was incubated overnight (18 hours) at 30° C. with shaking at 900 rpm. • The culture from the well was diluted into fresh wells (96 or 48 well plate) to a final volume of 1 mL at the following yeast cell optical densities: • 1. Abs600=1 • 2. Abs600=0.5 • 3. Abs600=0.5 • Wells 1 and 2 above were induced with 500 μM of a diacetyl solution (made up fresh and kept on ice); 1M: 87 μL diacetyl+913 μL water; then diluted 1/10 in water and 5 μL added to 1 mL cells for a final concentration of 500 μM). All wells were incubated for 30° C. for 18 hours with shaking at 900 rpm. • The plate was centrifuged to pellet the cells, the supernatant was aspirated off and discarded and the pellet was resuspended in 120 μL of lysis buffer (100 mM sodium phosphate buffer, pH 7.5 (consisting of 82 mM Na2HPO4 and […] with 0.1% (w/v) sodium dodecyl sulfate). Initial absorbance was read at 414 nm in a plate-reading spectrophotometer. • The plate was shaken at 900 rpm for 10 min at 30° C. • Thirty microlitres of 2.5 mM o-nitrophenyl-β-D-galactopyranoside (ONPG) (10 mg ONPG dissolved in 130 μL dimethyl formamide is 250 mM, then dilute 1/100 in water for final concentration, which is 2.5 mM) was added and the plate was incubated at room temperature for between 5 minutes and 3 hours. • Eighty microlitres of a 1M Na2CO3 solution was added and the absorbance was read in a plate-based spectrophotometer, either at 414 nm or a spectrum was recorded for each well over the visible region. The assay was repeated with a range of different dilutions (1⁄4 to 1/20) of the starting yeast culture in the wells of either 96 or 48 deep-well plates (the former can contain a total of 2 mL and the latter 5 mL.) Normally dilutions required to reach Abs600 nm=1 are in the range of 1⁄2 to 1⁄4. This experiment probed a set of higher dilutions. Incubation was for 17 hours at 30° C. and 900 rpm shaking. […] In 96 well plates, the higher cell dilutions consistently gave the better diacetyl-induced to control ratios (FIG. 11). The best ratio was in the case of the 96-well plate and the 1/20 dilution where the diacetyl-induced absorbance was 0.481 and the uninduced control was 0.079.

ODR-10 [2] = biological target: T1, ODR-10; experiment: LacZ reporter assay (ONPG workup) in Cyb-KAGMM yeast expressing ODR-10; settings: ONPG substrate
ODR-10 [3] = biological target: T1, ODR-10; experiment: 96-well LacZ/ONPG screen, positive control odr-10; settings: 500 μM diacetyl
[4] = biological target: odr-10 non-functional mutant H110Y (Caenorhabditis elegans, UniProt Q18807, H110Y); settings: 500 μM diacetyl; wells H11 and H12
ODR-10 [5] = biological target: T1, ODR-10; experiment: GFP reporter assay in Cyb-KAGMM yeast expressing ODR-10

Structure (SMILES): CC(=O)C(C)=O [diacetyl, butane-2,3-dione]
- Abs414 reading after 3 hours (ODR-10 [1]; Abs600 nm=0.5 starting condition): 0.521
- Abs414 reading after 3 hours (ODR-10 [1]; Abs600 nm=1 starting condition): 0.247
- diacetyl-induced absorbance (Abs414 nm) (ODR-10 [1]; 96-well plate, 1/20 dilution of starting culture, 17 hours incubation): 0.481
- induction of lacZ (ODR-10 [1]; dilutions 1/4 to 1/20 of starting culture in 96 or 48 deep-well plates): detected in all the conditions except the 1/20 cell dilution in the 48 well plate
- maximum increase in signal over background (ODR-10 [2]; 700 μM diacetyl, LacZ driven by FUS-2 (so in the source), FIG. 8): approximately 6 fold
- maximum ligand-induced increase in signal (ODR-10 [2]; 1 mM diacetyl, LacZ under FUS-1 promoter, FIG. 9): approximately 2.5 fold
- response (yellow colour, spectral peak at 420 nm) (ODR-10 [3]; clone in well H9): responds
- response (colour or spectra) (ODR-10 [3]; clone in well H10): did not show any response
- response (spectra) [4]: did not show any response
- GFP fluorescence emission relative to uninduced (ODR-10 [5]; 50 μM diacetyl, pGK:Odr10 with Fig2:GFP (FIG. 5 panel C)): below the uninduced condition
- difference between the peak GFP responses with ODR-10 expression and for the vector control (ODR-10 [5]; 500 μM diacetyl, best case (FIG. 5a, pGK:Odr10 with Fus1:GFP), 7 hrs induction): less than a twofold difference
